Reference: patent publication US20250092084A1, “C7, C12, AND C16 SUBSTITUTED NEUROACTIVE STEROIDS AND THEIR METHODS OF USE” (Sage Therapeutics, Inc., priority 2016, published 2025)

Target: rat brain cortical membranes (GABA receptor complex, [35S]-TBPS binding)
Assay: Steroid inhibition of [35S]-TBPS binding
Details: 3 nM [35S]-TBPS, in the presence of 5 mM GABA
Protocol: [^35S]-t-Butylbicyclophosphorothionate (TBPS) binding assays using rat brain cortical membranes in the presence of 5 mM GABA has been described (Gee et al, J Pharmacol. Exp. Ther. 1987, 241, 346-353; Hawkinson et al, Mol. Pharmacol. 1994, 46, 977-985; Lewin, A. H et al., Mol. Pharmacol. 1989, 35, 189-194).
Briefly, cortices are rapidly removed following decapitation of carbon dioxide-anesthetized Sprague-Dawley rats (200-250 g). The cortices are homogenized in 10 volumes of ice-cold 0.32 M sucrose using a glass/teflon homogenizer and centrifuged at 1500×g for 10 min at 4° C. The resultant supernatants are centrifuged at 10,000×g for 20 min at 4° C. to obtain the P2 pellets. The P2 pellets are resuspended in 200 mM NaCl/50 mM Na—K phosphate pH 7.4 buffer and centrifuged at 10,000×g for 10 min at 4° C. This washing procedure is repeated twice and the pellets are resuspended in 10 volumes of buffer. Aliquots ([…]) of the membrane suspensions are incubated with 3 nM [^35S]-TBPS and […] aliquots of test drug dissolved in dimethyl sulfoxide (DMSO) (final 0.5%) in the presence of 5 mM GABA. The incubation is brought to a final volume of 1.0 mL with buffer. Nonspecific binding is determined in the presence of […] and ranged from 15 to 25%. Following a 90 min incubation at room temp, the assays are terminated by filtration through glass fiber filters (Schleicher and Schuell No. 32) using a cell harvester (Brandel) and rinsed three times with ice-cold buffer. Filter bound radioactivity is measured by liquid scintillation spectrometry. Non-linear curve fitting of the overall data for each drug averaged for each concentration is done using Prism (GraphPad). […] The concentration of test compound producing 50% inhibition (IC50) of specific binding and the maximal extent of inhibition (Imax) are determined for the individual experiments with the same model used for the overall data and then the means±SEMs of the individual experiments are calculated.
Various compounds are or can be screened to determine their potential as modulators of [^35S]-TBPS binding in vitro. These assays are or can be performed in accordance with the above discussed procedures.

## C[C@@]1(O)CC[C@@]2(C)[C@@H](CC[C@@H]3[C@@H]2C[C@@H](O)[C@]2(C)[C@@H](C(=O)Cn4cc(C#N)cn4)CC[C@@H]32)C1 [Compound 47]
  IC50: ≥ 0.5 µM

## C[C@@]1(O)CC[C@@]2(C)[C@@H](CC[C@@H]3[C@@H]2CC(=O)[C@]2(C)[C@@H](C(=O)Cn4cc(C#N)cn4)CC[C@@H]32)C1 [Compound 48]
  IC50: ≥ 0.5 µM

## C[C@@]1(O)CC[C@@]2(C)[C@@H](CC[C@@H]3[C@@H]2C[C@@H](O)[C@]2(C)[C@@H](C(=O)Cn4cc5ccncc5n4)CC[C@@H]32)C1 [Compound 49]
  IC50: 0.1 to 0.5 µM

## C[C@@]1(O)CC[C@@]2(C)[C@@H](CC[C@@H]3[C@@H]2C[C@@H](O)[C@]2(C)[C@@H](C(=O)Cn4ncc5ccncc54)CC[C@@H]32)C1 [Compound 50]
  IC50: ≥ 0.5 µM

## CO[C@H]1C[C@H]2[C@@H](CC[C@H]3C[C@](C)(O)CC[C@@]32C)[C@@H]2CC[C@@H](C(C)=O)[C@@]12C [Compound 51]
  IC50: ≥ 0.5 µM

## CO[C@H]1C[C@H]2[C@@H](CC[C@H]3C[C@](C)(O)CC[C@@]32C)[C@@H]2CC[C@H](C(C)=O)[C@@]12C [Compound 52]
  IC50: ≥ 0.5 µM

## CO[C@H]1C[C@H]2[C@@H](CC[C@H]3C[C@](C)(O)CC[C@@]32C)[C@@H]2CC[C@H](C(=O)Cn3cc(C#N)cn3)[C@@]12C [Compound 53]
  IC50: ≥ 0.5 µM

## CO[C@H]1C[C@H]2[C@@H](CC[C@H]3C[C@](C)(O)CC[C@@]32C)[C@@H]2CC[C@H](C(=O)Cn3cc4ccncc4n3)[C@@]12C [Compound 54]
  IC50: ≥ 0.5 µM

## CO[C@H]1C[C@H]2[C@@H](CC[C@H]3C[C@](C)(O)CC[C@@]32C)[C@@H]2CC[C@H](C(=O)Cn3ncc4ccncc43)[C@@]12C [Compound 55]
  IC50: ≥ 0.5 µM

## CO[C@@H]1C[C@H]2[C@@H](CC[C@@H]3C[C@](C)(O)CC[C@@H]32)[C@@H]2CC[C@H](C(C)=O)[C@@]12C [Compound 56]
  IC50: 0.05 to 0.1 µM

## CO[C@@H]1C[C@H]2[C@@H](CC[C@@H]3C[C@](C)(O)CC[C@@H]32)[C@@H]2CC[C@H](C(=O)Cn3nnnc3C)[C@@]12C [Compound 59]
  IC50: 0.1 to 0.5 µM

## CO[C@@H]1C[C@H]2[C@@H](CC[C@H]3C[C@](C)(O)CC[C@@]32C)[C@@H]2CC[C@H](C(=O)Cn3nnnc3C)[C@@]12C [Compound 61]
  IC50: 0.1 to 0.5 µM

## CO[C@@H]1C[C@H]2[C@@H](CC[C@H]3C[C@](C)(O)CC[C@@]32C)[C@@H]2CC[C@H](C(=O)Cn3cc4ccncc4n3)[C@@]12C [Compound 62]
  IC50: 0.01 to 0.05 µM

## CO[C@@H]1C[C@H]2[C@@H](CC[C@H]3C[C@](C)(O)CC[C@@]32C)[C@@H]2CC[C@H](C(=O)Cn3ncc4ccncc43)[C@@]12C [Compound 63]
  IC50: 0.1 to 0.5 µM

## CC(=O)[C@H]1[C@H](C)C[C@H]2[C@@H]3CC[C@H]4C[C@](C)(O)CC[C@]4(C)[C@H]3CC[C@@]21C [Compound 64]
  IC50: 0.1 to 0.5 µM

## CC[C@@H]1C[C@H]2[C@@H]3CC[C@H]4C[C@](C)(O)CC[C@]4(C)[C@H]3CC[C@]2(C)[C@H]1C(C)=O [Compound 65]
  IC50: ≥ 0.5 µM

## C[C@@H]1C[C@H]2[C@@H]3CC[C@H]4C[C@](C)(O)CC[C@]4(C)[C@H]3CC[C@]2(C)[C@H]1C(=O)Cn1cc(C#N)cn1 [Compound 66]
  IC50: 0.01 to 0.05 µM

## COc1ccc2nn(CC(=O)[C@H]3[C@H](C)C[C@H]4[C@@H]5CC[C@H]6C[C@](C)(O)CC[C@]6(C)[C@H]5CC[C@@]43C)nc2c1 [Compound 67]
  IC50: 0.01 to 0.05 µM

## COc1ccc2nnn(CC(=O)[C@H]3[C@H](C)C[C@H]4[C@@H]5CC[C@H]6C[C@](C)(O)CC[C@]6(C)[C@H]5CC[C@@]43C)c2c1 [Compound 68]
  IC50: 0.01 to 0.05 µM

## COc1ccc2c(c1)nnn2CC(=O)[C@H]1[C@H](C)C[C@H]2[C@@H]3CC[C@H]4C[C@](C)(O)CC[C@]4(C)[C@H]3CC[C@@]21C [Compound 69]
  IC50: 0.01 to 0.05 µM

## CC[C@@H]1C[C@H]2[C@@H]3CC[C@H]4C[C@](C)(O)CC[C@]4(C)[C@H]3CC[C@]2(C)[C@H]1C(=O)Cn1nc2ccc(OC)cc2n1 [Compound 70]
  IC50: ≥ 0.5 µM

## CC[C@@H]1C[C@H]2[C@@H]3CC[C@H]4C[C@](C)(O)CC[C@]4(C)[C@H]3CC[C@]2(C)[C@H]1C(=O)Cn1nnc2ccc(OC)cc21 [Compound 71]
  IC50: ≥ 0.5 µM

## CC[C@@H]1C[C@H]2[C@@H]3CC[C@H]4C[C@](C)(O)CC[C@]4(C)[C@H]3CC[C@]2(C)[C@H]1C(=O)Cn1nnc2cc(OC)ccc21 [Compound 72]
  IC50: ≥ 0.5 µM

## CC(=O)[C@H]1[C@H](C(C)C)C[C@H]2[C@@H]3CC[C@H]4C[C@](C)(O)CC[C@]4(C)[C@H]3CC[C@@]21C [Compound 73]
  IC50: ≥ 0.5 µM

## CC[C@@H]1C[C@H]2[C@@H]3CC[C@H]4C[C@](C)(O)CC[C@]4(C)[C@H]3CC[C@]2(C)[C@H]1C(=O)Cn1cc(C#N)cn1 [Compound 74]
  IC50: ≥ 0.5 µM

## CC(C)[C@@H]1C[C@H]2[C@@H]3CC[C@H]4C[C@](C)(O)CC[C@]4(C)[C@H]3CC[C@]2(C)[C@H]1C(=O)Cn1ncc2ccncc21 [Compound 75]
  IC50: ≥ 0.5 µM

## CC(C)[C@@H]1C[C@H]2[C@@H]3CC[C@H]4C[C@](C)(O)CC[C@]4(C)[C@H]3CC[C@]2(C)[C@H]1C(=O)Cn1cc2ccncc2n1 [Compound 76]
  IC50: ≥ 0.5 µM

## COc1ccc2nn(CC(=O)[C@H]3[C@H](C(C)C)C[C@H]4[C@@H]5CC[C@H]6C[C@](C)(O)CC[C@]6(C)[C@H]5CC[C@@]43C)nc2c1 [Compound 77]
  IC50: ≥ 0.5 µM

## CC(C)[C@@H]1C[C@H]2[C@@H]3CC[C@H]4C[C@](C)(O)CC[C@]4(C)[C@H]3CC[C@]2(C)[C@H]1C(=O)Cn1cc(C#N)cn1 [Compound 88]
  IC50: ≥ 0.5 µM

## Cc1nnn(CC(=O)[C@H]2[C@H](C)C[C@H]3[C@@H]4CC[C@H]5C[C@](C)(O)CC[C@]5(C)[C@H]4CC[C@@]32C)n1 [Compound 89]
  IC50: 0.01 to 0.05 µM

## Cc1nnnn1CC(=O)[C@H]1[C@H](C)C[C@H]2[C@@H]3CC[C@H]4C[C@](C)(O)CC[C@]4(C)[C@H]3CC[C@@]21C [Compound 90]
  IC50: 0.1 to 0.5 µM
